Experiment: xn = mol fraction of the nth substance listed

NCCNCCN + CCCCCCCCCCO
viscosity [mPa·s], 101 kPa
Conditions	298.15 K	303.15 K	308.15 K
x1 = 0.0564	12.02	9.924	8.366
x1 = 0.1003	12.52	10.34	8.775
x1 = 0.1543	12.81	10.46	8.862
x1 = 0.2007	12.75	10.39	8.738
x1 = 0.259	12.43	10.11	8.451
x1 = 0.3083	12	9.746	8.092
x1 = 0.4061	10.91	8.874	7.255
x1 = 0.5034	9.787	7.869	6.538
x1 = 0.6067	8.422	6.913	5.779
x1 = 0.7075	7.345	6.087	5.117
x1 = 0.8062	6.406	5.281	4.552
x1 = 0.852	6.037	4.932	4.298
x1 = 0.9067	5.656	4.678	4.065
x1 = 0.9524	5.499	4.556	3.897

Fc1c(F)c(F)c(F)c(F)c1F + CS(C)=O
viscosity [mPa·s], 101 kPa
Conditions	x2 = 0.1003	x2 = 0.2029	x2 = 0.2999	x2 = 0.4	x2 = 0.5001	x2 = 0.5999	x2 = 0.7	x2 = 0.8004	x2 = 0.9
293.15 K	0.991	1.058	1.143	1.246	1.365	1.509	1.661	1.806	1.974
303.15 K	0.833	0.891	0.961	1.05	1.144	1.267	1.386	1.513	1.641
313.15 K	0.703	0.758	0.822	0.904	0.976	1.071	1.171	1.276	1.385
323.15 K	0.62	0.659	0.713	0.775	0.839	0.918	0.993	1.077	1.167

Cc1cccc(N)c1 + C1CCCCC1
303.15 K, 101.33 kPa
Conditions	viscosity [mPa·s]
x1 = 0.2	0.95
x1 = 0.398	1.13
x1 = 0.559	1.35
x1 = 0.786	1.88

[F-].[K+] + O
Conditions	viscosity [mPa·s]
298.15 K, 100 kPa, x1 = 0.02	1.005
298.15 K, 100 kPa, x1 = 0.03	1.133
298.15 K, 100 kPa, x1 = 0.07	1.53
298.15 K, 100 kPa, x1 = 0.1	2.16
298.15 K, 100 kPa, x1 = 0.2	3.23
303.15 K, 101 kPa, x1 = 0.002	0.808
303.15 K, 101 kPa, x1 = 0.005	0.828
303.15 K, 101 kPa, x1 = 0.009	0.849
308.15 K, 101 kPa, x1 = 0.002	0.735
308.15 K, 101 kPa, x1 = 0.005	0.754
308.15 K, 101 kPa, x1 = 0.009	0.778
313.15 K, 101 kPa, x1 = 0.005	0.687
313.15 K, 101 kPa, x1 = 0.009	0.709
318.15 K, 101 kPa, x1 = 0.005	0.632
318.15 K, 101 kPa, x1 = 0.009	0.651
323.15 K, 100 kPa, x1 = 0.02	0.5955
323.15 K, 100 kPa, x1 = 0.03	0.7039
323.15 K, 100 kPa, x1 = 0.07	0.9529
323.15 K, 100 kPa, x1 = 0.1	1.35
323.15 K, 100 kPa, x1 = 0.2	2.021

CCCCO + CO
101.33 kPa
Conditions	viscosity [mPa·s]
298.15 K, x2 = 0.1362	2.2
298.15 K, x2 = 0.2224	1.966
298.15 K, x2 = 0.302	1.768
298.15 K, x2 = 0.409	1.528
298.15 K, x2 = 0.5154	1.312
298.15 K, x2 = 0.6105	1.139
298.15 K, x2 = 0.693	0.999
298.15 K, x2 = 0.8012	0.833
298.15 K, x2 = 0.9004	0.69
303.15 K, x2 = 0.2846	1.602
303.15 K, x2 = 0.3614	1.45
303.15 K, x2 = 0.4291	1.311
303.15 K, x2 = 0.492	1.191
303.15 K, x2 = 0.6007	1.038
303.15 K, x2 = 0.6929	0.8879
303.15 K, x2 = 0.7719	0.7812
303.15 K, x2 = 0.8404	0.6887
303.15 K, x2 = 0.9003	0.6154

CCCCCCCCCCCC(=O)O + CCCCCCCCCC(=O)O
100 kPa, x1 = 0.33
Conditions	viscosity [mPa·s]
293.15 K	12.89
298.15 K	10.76
303.15 K	9.199
308.15 K	7.939
313.15 K	6.909
318.15 K	6.059
323.15 K	5.349

C=C1CCC2CC1C2(C)C (stereo unspecified) + c1ccccc1
viscosity [mPa·s], 101 kPa
Conditions	x2 = 0.3052	x2 = 0.4296	x2 = 0.5395	x2 = 0.6373	x2 = 0.7249	x2 = 0.8039	x2 = 0.8754	x2 = 0.9405
303.15 K	1.187	0.998	0.867	0.759	0.691	0.646	0.614	0.593
308.15 K	1.106	0.936	0.807	0.71	0.655	0.619	0.587	0.566
313.15 K	1.022	0.866	0.749	0.658	0.614	0.583	0.556	0.537

From the CheMixHub viscosity set
